The record followed here is patent US20230348424A1, “HETEROCYCLIC COMPOUNDS AND METHODS OF USE” (Schrödinger, Inc., priority 2022, published 2023).

Molecules are shown by their SMILES.

The target in this experiment is SOS1:KRAS (G12C) interaction (Homo sapiens (Human), UniProt Q07889). As to the kind of experiment: SOS1 KRas(G12C) FRET Assay. It counts as binding. The conditions noted are these: 0.5 nM His10-SOS1 (res. 564-1049), 2.5 nM GST-KRAS G12C (res. 1-169), 2 hrs at RT. The gist of the method: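 GST-KRAS G12C (res. 1-169) at 2.5 nM and His10-SOS1 (res. 564-1049) at 0.5 nM, final, in PBS with 0.1% BSA, 5 mM MgCl2, 100 mM KF, 5 mM DTT and 0.5% DMSO. After 2 h at RT, FRET read at 665/615 nm and normalized to DMSO and no-SOS1 controls. IC50 by non-linear regression.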
Sequence of SOS1:KRAS (G12C) interaction (Q07889 564-1049, stated change not applied): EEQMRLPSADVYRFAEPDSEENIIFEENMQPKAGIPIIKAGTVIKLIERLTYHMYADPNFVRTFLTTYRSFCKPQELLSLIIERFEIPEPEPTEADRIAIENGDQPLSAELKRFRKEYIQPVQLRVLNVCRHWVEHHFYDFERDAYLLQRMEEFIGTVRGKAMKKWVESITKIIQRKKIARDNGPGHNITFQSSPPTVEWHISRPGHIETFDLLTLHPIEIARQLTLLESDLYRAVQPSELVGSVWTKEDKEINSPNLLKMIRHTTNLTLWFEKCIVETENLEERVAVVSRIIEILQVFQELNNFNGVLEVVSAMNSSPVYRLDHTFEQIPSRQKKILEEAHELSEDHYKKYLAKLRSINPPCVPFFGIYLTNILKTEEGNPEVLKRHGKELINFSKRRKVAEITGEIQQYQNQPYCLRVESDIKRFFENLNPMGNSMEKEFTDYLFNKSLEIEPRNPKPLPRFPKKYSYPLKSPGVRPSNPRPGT
The IC50 is the concentration needed to halve the response being measured. For the molecule `C[C@@H](NC(=O)c1cn(C2(C(F)F)CC2)c(=O)cc1NCC1(F)CN(C)C1)c1cccc(C(F)F)c1F` [Example 185, (R)-N-(1-(3-(difluoromethyl)-2-fluorophenyl)ethyl)-1-(1-(difluoromethyl)cyclopropyl)-4-(((3-fluoro-1-methylazetidin-3-yl)methyl)amino)-6-oxo-1,6-dihydropyridine-3-carboxamide], the IC50 came out at 30.7 nM.
The figure for `C[C@@H](NC(=O)c1cn(C2(C(F)F)CC2)c(=O)cc1N[C@H]1CN2CCC1(F)CC2)c1cccc(C(F)F)c1F` [Example 186, N-((R)-1-(3-(difluoromethyl)-2-fluorophenyl)ethyl)-1-(1-(difluoromethyl)cyclopropyl)-4-(((S)-4-fluoroquinuclidin-3-yl)amino)-6-oxo-1,6-dihydropyridine-3-carboxamide] is 27.5 nM.
With `C[C@@H](NC(=O)c1cn(C2(C(F)F)CC2)c(=O)cc1N[C@@H]1CN2CCC1(F)CC2)c1cccc(C(F)F)c1F` [Example 187, N-((R)-1-(3-(difluoromethyl)-2-fluorophenyl)ethyl)-1-(1-(difluoromethyl)cyclopropyl)-4-(((R)-4-fluoroquinuclidin-3-yl)amino)-6-oxo-1,6-dihydropyridine-3-carboxamide], half-maximal inhibition (IC50) required 22.3 nM.
With `C[C@@H](NC(=O)c1cn(C2(C(F)F)CC2)c(=O)cc1NC[C@@H]1CCCN1C)c1cccc(C(F)F)c1F` [Example 188, N-((R)-1-(3-(difluoromethyl)-2-fluorophenyl)ethyl)-1-(1-(difluoromethyl)cyclopropyl)-4-((((S)-1-methylpyrrolidin-2-yl)methyl)amino)-6-oxo-1,6-dihydropyridine-3-carboxamide], it took 41.3 nM to reach half-maximal inhibition (IC50).
As for `C[C@@H](NC(=O)c1cn(C23CC(C2)C3)c(=O)cc1NC12CC(N)(C1)C2)c1cccc(C(F)F)c1F` [Example 189, (R)-4-((3-aminobicyclo[1.1.1]pentan-1-yl)amino)-1-(bicyclo[1.1.1]pentan-1-yl)-N-(1-(3-(difluoromethyl)-2-fluorophenyl)ethyl)-6-oxo-1,6-dihydropyridine-3-carboxamide], the IC50 stood at 16.3 nM.
`C[C@@H](NC(=O)c1cn(C23CC(C2)C3)c(=O)cc1N)c1cccc(C(F)F)c1F` [Example 190, (R)-4-amino-1-(bicyclo[1.1.1]pentan-1-yl)-N-(1-(3-(difluoromethyl)-2-fluorophenyl)ethyl)-6-oxo-1,6-dihydropyridine-3-carboxamide]: the IC50 was 315 nM.
The figure for `CC(Nc1cc(=O)n(C2(C(F)F)CC2)cc1C(=O)N[C@H](C)c1cccc(C(F)F)c1F)C1(CO)CC1` (stereo partly drawn) [Example 191, N-((R)-1-(3-(difluoromethyl)-2-fluorophenyl)ethyl)-1-(1-(difluoromethyl)cyclopropyl)-4-((1-(1-(hydroxymethyl)cyclopropyl)ethyl)amino)-6-oxo-1,6-dihydropyridine-3-carboxamide] is 140 nM.
`C[C@@H](NC(=O)c1cn(C23COC(C2)C3)c(=O)cc1N[C@H]1[C@@H]2CN(C)C[C@@H]21)c1cccc(C(F)F)c1F` [Example 192] came in with an IC50 of 12.9 nM.
On to `C[C@@H](NC(=O)c1cn(C23CC(C2)C3)c(=O)cc1N[C@H]1[C@@H]2CN(C)C[C@@H]21)c1cccc(C(F)(F)F)c1F` [Example 205, 1-(bicyclo[1.1.1]pentan-1-yl)-N-((R)-1-(2-fluoro-3-(trifluoromethyl)phenyl)ethyl)-4-(((1R,5S,6s)-3-methyl-3-azabicyclo[3.1.0]hexan-6-yl)amino)-6-oxo-1,6-dihydropyridine-3-carboxamide], for which the IC50 worked out at 26.6 nM.
To `C[C@@H](NC(=O)c1cn(C2C(F)(F)C23CC3)c(=O)cc1N[C@H]1[C@@H]2CN(C)C[C@@H]21)c1cccc(C(F)F)c1F` (stereo partly drawn) [Example 206, N-((R)-1-(3-(difluoromethyl)-2-fluorophenyl)ethyl)-1-(2,2-difluorospiro[2.2]pentan-1-yl)-4-(((1R,5S,6s)-3-methyl-3-azabicyclo[3.1.0]hexan-6-yl)amino)-6-oxo-1,6-dihydropyridine-3-carboxamide] belongs 137 nM; to `C[C@@H](NC(=O)c1cn(C2CCC2)c(=O)cc1N[C@H]1[C@@H]2CN(C)C[C@@H]21)c1cccc(C(F)(F)F)c1F` [Example 207, 1-cyclobutyl-N-((R)-1-(2-fluoro-3-(trifluoromethyl)phenyl)ethyl)-4-(((1R,5S,6s)-3-methyl-3-azabicyclo[3.1.0]hexan-6-yl)amino)-6-oxo-1,6-dihydropyridine-3-carboxamide], 9.3 nM; to `C[C@@H](NC(=O)c1cn(C23CC(C2)C3)c(=O)cc1N[C@@H]1[C@@H]2C[C@H]1CN(C)C2)c1cccc(C(F)F)c1F` [Example 208, 1-(bicyclo[1.1.1]pentan-1-yl)-N-((R)-1-(3-(difluoromethyl)-2-fluorophenyl)ethyl)-4-(((1R,5S,6s)-3-methyl-3-azabicyclo[3.1.1]heptan-6-yl)amino)-6-oxo-1,6-dihydropyridine-3-carboxamide], 13 nM.
The figure for `C[C@@H](NC(=O)c1cn(C23CC(C2)C3)c(=O)cc1N[C@H]1[C@@H]2C[C@H]1CN(C)C2)c1cccc(C(F)F)c1F` [Example 209, 1-(bicyclo[1.1.1]pentan-1-yl)-N-((R)-1-(3-(difluoromethyl)-2-fluorophenyl)ethyl)-4-(((1R,5S,6r)-3-methyl-3-azabicyclo[3.1.1]heptan-6-yl)amino)-6-oxo-1,6-dihydropyridine-3-carboxamide] is 63.4 nM; for `C[C@@H](NC(=O)c1cn([C@H]2CCC2(F)F)c(=O)cc1N[C@H]1[C@@H]2CC[C@H]1CN(C)C2)c1cccc(C(F)F)c1F` [Example 210, 1-((S)-2,2-difluorocyclobutyl)-N-((R)-1-(3-(difluoromethyl)-2-fluorophenyl)ethyl)-4-(((1R,5S,8r)-3-methyl-3-azabicyclo[3.2.1]octan-8-yl)amino)-6-oxo-1,6-dihydropyridine-3-carboxamide] it is 4.3 nM.
In the case of `C[C@@H](NC(=O)c1cn([C@H]2CCC2(F)F)c(=O)cc1N[C@@H]1[C@@H]2CC[C@H]1CN(C)C2)c1cccc(C(F)F)c1F` [Example 211, 1-((S)-2,2-difluorocyclobutyl)-N-((R)-1-(3-(difluoromethyl)-2-fluorophenyl)ethyl)-4-(((1R,5S,8s)-3-methyl-3-azabicyclo[3.2.1]octan-8-yl)amino)-6-oxo-1,6-dihydropyridine-3-carboxamide], the IC50 is 29.4 nM.
The figure for `C[C@@H](NC(=O)c1cn([C@@H]2CCC2(F)F)c(=O)cc1N[C@@H]1[C@@H]2CC[C@H]1CN(C)C2)c1cccc(C(F)F)c1F` [Example 212, 1-((R)-2,2-difluorocyclobutyl)-N-((R)-1-(3-(difluoromethyl)-2-fluorophenyl)ethyl)-4-(((1R,5S,8s)-3-methyl-3-azabicyclo[3.2.1]octan-8-yl)amino)-6-oxo-1,6-dihydropyridine-3-carboxamide] is 38.2 nM; for `C[C@@H](NC(=O)c1cn([C@@H]2CCC2(F)F)c(=O)cc1N[C@H]1[C@@H]2CC[C@H]1CN(C)C2)c1cccc(C(F)F)c1F` [Example 213, 1-((R)-2,2-difluorocyclobutyl)-N-((R)-1-(3-(difluoromethyl)-2-fluorophenyl)ethyl)-4-(((1R,5S,8r)-3-methyl-3-azabicyclo[3.2.1]octan-8-yl)amino)-6-oxo-1,6-dihydropyridine-3-carboxamide] it is 149 nM.
On to `C[C@@H](NC(=O)c1cn(C23CC(C2)C3)c(=O)cc1N[C@@H]1C[C@@H]2CN(C)C[C@@H]2C1)c1cccc(C(F)F)c1F` [Example 216, 1-(bicyclo[1.1.1]pentan-1-yl)-N-((R)-1-(3-(difluoromethyl)-2-fluorophenyl)ethyl)-4-(((3aR,5r,6aS)-2-methyloctahydrocyclopenta[c]pyrrol-5-yl)amino)-6-oxo-1,6-dihydropyridine-3-carboxamide], for which half-maximal inhibition (IC50) was put at 19.1 nM.
`C[C@@H](NC(=O)c1cn(C23CC(C2)C3)c(=O)cc1NC1CCN(C)CC1)c1cccc(C(F)F)c1F` [Example 217, (R)-1-(bicyclo[1.1.1]pentan-1-yl)-N-(1-(3-(difluoromethyl)-2-fluorophenyl)ethyl)-4-((1-methylpiperidin-4-yl)amino)-6-oxo-1,6-dihydropyridine-3-carboxamide] had an IC50 of 7.4 nM.
To `C[C@@H](NC(=O)c1cn(C23COC(C)(C2)C3)c(=O)cc1NC1CCN(C)CC1)c1cccc(C(F)F)c1F` [Example 220, (R)-N-(1-(3-(difluoromethyl)-2-fluorophenyl)ethyl)-1-(1-methyl-2-oxabicyclo[2.1. 1]hexan-4-yl)-4-((1-methylpiperidin-4-yl)amino)-6-oxo-1,6-dihydropyridine-3-carboxamide] belongs 26.8 nM; to `C[C@@H](NC(=O)c1cn(C2(C(F)F)CC2)c(=O)cc1NC[C@H]1CCCN1C)c1cccc(C(F)F)c1F` [Example 221, N-((R)-1-(3-(difluoromethyl)-2-fluorophenyl)ethyl)-1-(1-(difluoromethyl)cyclopropyl)-4-((((R)-1-methylpyrrolidin-2-yl)methyl)amino)-6-oxo-1,6-dihydropyridine-3-carboxamide], 38.2 nM.
To `C[C@@H](NC(=O)c1cn(C2(C)CC(F)(F)C2)c(=O)cc1NC1CCN(C)CC1)c1cccc(C(F)F)c1F` [Example 222, (R)-1-(3,3-difluoro-1-methylcyclobutyl)-N-(1-(3-(difluoromethyl)-2-fluorophenyl)ethyl)-4-((1-methylpiperidin-4-yl)amino)-6-oxo-1,6-dihydropyridine-3-carboxamide] belongs 27.6 nM; to `C[C@@H](NC(=O)c1cn(C2(C(F)(F)F)CCCC2)c(=O)cc1NC1CCN(C)CC1)c1cccc(C(F)F)c1F` [Example 223, (R)-N-(1-(3-(difluoromethyl)-2-fluorophenyl)ethyl)-4-((1-methylpiperidin-4-yl)amino)-6-oxo-1-(1-(trifluoromethyl)cyclopentyl)-1,6-dihydropyridine-3-carboxamide], 14.1 nM.
